Test results taken from PMC12520456, “Regulating Enzyme Activity via Microaggregates Mediated by Phase Separation” (Advanced Science, 2025).
Non-standard residues stand in square brackets, D forms with d. Residues, ends and D or L forms follow the SMILES beside them.

Assay: Animal fluorescence imaging, tissue distribution and urine
Format: in vivo, rat
Experimental: To assess the fate of DPMD in vivo, rats were administered DPMD intraperitoneally and monitored using in vivo fluorescence imaging.
Figure S14. (A) The cell viability test of NIH-3T3 or HUVEC cells co-cultured with different concentrations DPMD.
(B) The apoptosis evaluation of NIH-3T3 or HUVEC co-cultured with DPMD, DPMD & Trypsin, DPMD & Chymotrypsin by flow cytometry. (C) Tissue distribution and quantification of DPMD in […] organs measured by IVIS (n=3/point). The fluorescence signal from the organs after DPMD intraperitoneal injection (1 ml, 0.5%) at 1h, 2-day, 3-day, 4-day, 5-day, 6-day, 7-day. (D) The evaluation of distribution DMPD in urine.
(1 picture or pasted object on this page, not shown here) […]
was performed using an Annexin V-Alexa Fluor 647/PI kit (Solarbio) according to the manufacturer’ s protocol. Briefly, adherent cells were detached with 0.25% EDTA-free trypsin, combined with floating cells from the supernatant. The pellet was washed twice with cold PBS and resuspended in 100 μL of 1× binding buffer. […] Samples were analyzed within 1h on a Sony MA900 flow cytometer.
3.12 Animal fluorescence imaging
Rats were intraperitoneally injected with 1 mL of rhodamine-labeled 0.5% (w/v) DPMD. […] The fluorescence emission intensity of the organs was measured using IVIS Spectrum system (PerkinElmer). […]

Structure (SMILES): CC[C@@H](C)[C@@H](NC(=O)[C@@H](CCC(N)=O)NC(=O)[C@H](NC(=O)[C@@H](Cc1ccc(O)cc1)NC(=O)CNC(=O)[C@@H](CC(C)C)NC(=O)[C@H](NC(=O)[C@@H](CO)NC(=O)CNC(=O)[C@@H](C)NC(=O)[C@@H](CC(=O)O)NC(=O)[C@@H](C)NC(=O)[C@@H](CCCNC(=N)N)NC(=O)[C@@H](C)NC(=O)[C@@H](CC(=O)O)NC(=O)[C@@H](C)NC(=O)[C@@H](CCCNC(=N)N)NC(=O)[C@@H](C)NC(=O)[C@@H](CC(=O)O)NC(=O)[C@@H](C)NC(=O)[C@@H](CCCNC(=N)N)NC(=O)[C@@H](C)NC(=O)[C@@H](CC(=O)O)NC(=O)[C@@H](C)NC(=O)[C@H](N)CCCNC(=N)N)C(C)C)[C@H](C)CC)C(=O)N[C@H](CCCNC(=N)N)C(=O)O [DPMD, Ac‐(D‐RADA)4‐CONH2] (H-[dR][dA][dD][dA][dR][dA][dD][dA][dR][dA][dD][dA][dR][dA][dD][dA]G[dS][dV][dL]G[dY][dI][dQ][dI][dR]-OH; N-terminus and C-terminus assumed)
- fluorescence intensity in organs (liver, kidneys, spleen) (1 mL rhodamine-labeled 0.5% (w/v) DPMD intraperitoneally, IVIS, day 6 post-injection, n=3/point): barely detectable
- fluorescence in urine samples (labeled DPMD intraperitoneally, Figure S14D): fluorescence appeared in urine samples
